Experimental data reported in PMC6332318, “Synthetic Development of New 3-(4-Arylmethylamino)butyl-5-arylidene-rhodanines under Microwave Irradiation and Their Effects on Tumor Cell Lines and against Protein Kinases” (Molecules, 2015).
One block for each compound: values may come before it.

Legend:
SsCK1δ/ε = assay: protein kinase assay, [γ-33P] ATP; format: biochemical, porcine; details: 15 μM ATP; CKS peptide substrate; >10 = inhibitory but IC50 > 10 μM
Description: (§1) Then, we evaluated the intermediates salts 6a–f and fourteen final compounds 9a–n on four protein kinases: HsCDK5-p25 (cyclin-dependant kinase 5-p25), SsGSK-3α/β (glycogen synthase kinase-3α/β) SsCK1δ/ε (Caseine kinase 1) and HsHaspin as an essential mitotic kinase. All assays were run in the presence of 15 μM of ATP and appropriate substrates. IC50 values were determined from dose-response curves. Concerning the library of the fourteen (5Z) 3-(4-arylmethylamino)butyl-5-arylidene-2-thioxo-1,3-thiazolidine-4-ones 9a–n and also the six diamines salts 6a–f, the results are given in Table 3. […] It is interesting to note that these two compounds are respectively substituted with an hydroxyl function on para-position of the 5-arylidene moiety and also with a similar bulky group (1,3-benzodioxol-5-yl for 9j and 2,3-dihydro-benzo[1,4]dioxin-6-yl for 9n) on the arylmethylamino moiety grafted on the N-3 butyl chain.
(§2) Kinase activities for each enzyme were assayed in buffer A (25 mM Tris-HCl pH 7.5, 10 mM MgCl2, 1 mM EGTA, 1 mM DTT, 50 µg/mL Heparin, BSA 0.15 mg/mL) or B (60 mM β-glycerophosphate, 30 mM p-Nitrophenylphosphate, 25 mM MOPS, 5 mM EGTA, 15 mM MgCl2, 1 mM DTT, 0.1 mM Na vanadate), with their corresponding substrates, in the presence of 15 µM [γ-^33P] ATP (3000 Ci/mmol; 10 mCi/mL) in a final volume of 30 µL. After 30 min incubation at 30 °C, the reaction was stopped by harvesting, using a FilterMate harvester (Packard, Meriden, CT, USA), onto P81 phosphocellulose papers (GE Healthcare, Velizy-Villacoublay, France) which were washed in 1% phosphoric acid. Scintillation fluid was added and the radioactivity measured in a Packard counter. Blank values were subtracted and activities calculated as pmoles of phosphate incorporated during the 30 min incubation. The activities were expressed in a percentage of the maximal activity, i.e., in the absence of inhibitors. Controls were performed with appropriate dilutions of DMSO. CK1 and Haspin peptide substrates were obtained from Proteogenix (Oberhausbergen, France).
Casein kinase 1 (CK1δ/ε) (porcine brain, native) was assayed with 0.67 µg of CKS peptide ([…]pSAYSITA).

HsCDK5/p25 = biological target: T1, HsCDK5/p25 (Homo sapiens, UniProt Q00535); assay: protein kinase assay, [γ-33P] ATP; format: biochemical
T1 construct: made in house
Description: as §1, §2
CDK5/p25 (human, recombinant) was prepared as previously described. […]

diploid skin fibroblasts = assay: in vitro inhibition of cell proliferation / survival assay, normal cells control; format: cell-based; details: Skin fibroblast, Fibroblasts; for IC50: 48 h, average of three assays, standard error ± 0.5 μM; for viability at 25 µM: measured at 25 μM after 48 h, single dose, triplicate, read-out: % of Survival
Description: (§3) As an initial effort to investigate their in vitro bioactivity, the new synthesized 3-(4-arylmethylamino)butyl-2-thioxo-1,3-thiazolidine-4-one 9a–n and also their precursors 6a–f were evaluated for their in vitro inhibition of cell proliferation. For this study, we used a panel of seven representative tumoral cell lines, namely HuH7 D12 (differential hepato cellular carcinoma), Caco 2 (differentiating colorectal adenocarcinoma), MDA-MBD231 ([…]), HCT 116 (actively proliferating colorectal adenocarcinoma), PC3 (prostate carcinoma), NCI-H727 (lung carcinoma), HaCat keratinocyte and, diploid skin fibroblasts as normal cell lines for control.
(§4) Skin diploid fibroblastic cells were provided by BIOPREDIC International Company (Rennes, France). Caco2 (Ref ECACC: 86010202), Huh-7D12 (Ref ECACC: 01042712), MDA-MB-231 (Ref ECACC: 92020424), HCT-116 (Ref ECACC: 91091005), PC3 (Ref ECACC: 90112714), NCI-H727 (Ref ECACC: 94060303) cell lines were obtained from the ECACC collection and HaCaT (from Cell Lines Service, Eppelheim, Germany). Cells were grown according to ECACC recommendations. The toxicity test of the compounds on these cells was as follows: 2 × 10^3 cells for HCT-116 cells or 4 × 10^3 for the other cells were seeded in 96 multiwell plates in triplicate and left for 24 h for attachment, spreading and growing. Then, cells were exposed for 48 h to increasing concentrations of the compounds, ranging from 0.1 to 25 μM in a final volume of 120 μL of culture medium. Cells were fixed in cooled solution of 90% ethanol/5% acetic acid, nuclei were stained with Hoechst 3342 (Sigma) and counted using automated imaging analysis (Cellomics Arrayscan VTI/HCS Reader, Thermo/Scientific, Waltham, MA, USA). The IC50 were graphically determined.

HaCat keratinocyte = assay: in vitro inhibition of cell proliferation / survival assay; format: cell-based; details: for IC50: 48 h, average of three assays, standard error ± 0.5 μM; for viability at 25 µM: measured at 25 μM after 48 h, single dose, triplicate
Description: as §3, §4

[1] = system: Huh7 D12 cells (differential hepato cellular carcinoma); assay: as above; format: cell-based; details: for IC50: Huh-7D12, 48 h, average of three assays, standard error ± 0.5 μM; for viability at 25 µM: Huh-7D12, measured at 25 μM after 48 h, single dose, triplicate
Description: as §3, §4

[2] = system: Caco 2 cells (differentiating colorectal adenocarcinoma); assay: as above; format: cell-based; details: Homo sapiens; for IC50: 48 h, average of three assays, standard error ± 0.5 μM; for viability at 25 µM: measured at 25 μM after 48 h, single dose, triplicate
Description: as §3, §4

MDA-MB231 cells = assay: as above; format: cell-based; details: Homo sapiens; for IC50: MDA-MB-231, 48 h, average of three assays, standard error ± 0.5 μM; for viability at 25 µM: MDA-MB-231, measured at 25 μM after 48 h, single dose, triplicate
Description: as §3, §4

[3] = system: PC3 cells (prostate carcinoma); assay: as above; format: cell-based; details: Homo sapiens; for IC50: PC-3, 48 h, average of three assays, standard error ± 0.5 μM; for viability at 25 µM: PC-3, measured at 25 μM after 48 h, single dose, triplicate
Description: as §3, §4

[4] = system: NCI-H727 cells (lung carcinoma); assay: as above; format: cell-based; details: Homo sapiens, NCI-H727; for IC50: 48 h, average of three assays, standard error ± 0.5 μM; for viability at 25 µM: measured at 25 μM after 48 h, single dose, triplicate, read-out: % of Survival
Description: as §3, §4

[5] = system: HCT 116 cells (actively proliferating colorectal adenocarcinoma); assay: as above; format: cell-based; details: Homo sapiens; for IC50: 48 h, average of three assays, standard error ± 0.5 μM; for viability at 25 µM: measured at 25 μM after 48 h, single dose, triplicate
Description: as §3, §4

SsGSK-3α/β = assay: protein kinase assay, [γ-33P] ATP; format: biochemical, porcine; details: 15 μM ATP; GS-1 substrate; >10 = inhibitory but IC50 > 10 μM
Description: as §1, §2
GSK-3α/β (porcine brain, native) was assayed, as described for CDK5/p25 but in Buffer A and using a GSK-3 specific substrate (GS-1: […]pEDEEE) (pS stands for phosphorylated serine). GS-1 was synthesized by Millegen (Labege, France).

T1 sequence (Q00535 whole entry): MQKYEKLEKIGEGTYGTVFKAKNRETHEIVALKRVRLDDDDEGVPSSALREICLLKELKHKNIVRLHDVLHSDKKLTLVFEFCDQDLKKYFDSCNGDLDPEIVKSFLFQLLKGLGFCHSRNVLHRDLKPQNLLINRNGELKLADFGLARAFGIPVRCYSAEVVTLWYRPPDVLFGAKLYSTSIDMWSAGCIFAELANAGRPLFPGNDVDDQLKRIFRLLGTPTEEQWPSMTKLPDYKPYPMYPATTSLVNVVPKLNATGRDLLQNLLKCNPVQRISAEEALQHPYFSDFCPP
T1 sequence (Q15078 99-307 partner limits assumed): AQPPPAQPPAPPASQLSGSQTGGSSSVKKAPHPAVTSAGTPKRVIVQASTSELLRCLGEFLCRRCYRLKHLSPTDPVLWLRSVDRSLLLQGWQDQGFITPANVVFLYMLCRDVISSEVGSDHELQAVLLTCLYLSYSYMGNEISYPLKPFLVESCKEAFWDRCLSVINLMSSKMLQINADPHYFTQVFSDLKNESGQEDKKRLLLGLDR

- melting point: 245 to 256 °C
- IC50 (SsCK1δ/ε): 6.6 µM
- IC50 (HsCDK5/p25): 1.1 µM
- IC50 (SsGSK-3α/β): > 10 µM
Compound: O=C1/C(=C/c2ccc3c(c2)OCO3)SC(=S)N1CCCCNCc1ccc2c(c1)OCO2 [Compound 9h, (5Z)3-[4-(1,3-Benzodioxol-5-ylmethylamino)butyl]-5-(1,3-benzodioxol-5-ylmethylene)-2-thioxo-1,3-thiazolidin-4-one]
- IC50 (diploid skin fibroblasts): > 25 µM
- viability at 25 µM (diploid skin fibroblasts): 80%
- IC50 (HaCat keratinocyte; Homo sapiens, HaCaT): 10 µM
- viability at 25 µM (HaCat keratinocyte; Homo sapiens): 10%
- IC50 [1]: 10 µM
- viability at 25 µM [1]: 7%
- IC50 [2]: 14 µM
- viability at 25 µM [2]: 42%
- IC50 (MDA-MB231 cells): 10 µM
- viability at 25 µM (MDA-MB231 cells): 49%
- IC50 [3]: 13 µM
- viability at 25 µM [3]: 51%
- IC50 [4]: > 25 µM
- viability at 25 µM [4]: 43%
- IC50 [5]: 13 µM
- viability at 25 µM [5]: 65%

- melting point: 253 to 257 °C
- IC50 (SsCK1δ/ε): 5.4 µM
- IC50 (HsCDK5/p25): 1.3 µM
- IC50 (SsGSK-3α/β): > 10 µM
Compound: O=C1/C(=C/c2ccc3c(c2)OCCO3)SC(=S)N1CCCCNCc1ccc2c(c1)OCO2 [Compound 9i, (5Z)3-[4-(1,3-Benzodioxol-5-ylmethylamino)butyl]-5-(2,3-dihydro-1,4-benzodioxin-6-ylmethylene)-2-thioxo-1,3-thiazolidin-4-one]
- IC50 (diploid skin fibroblasts): > 25 µM
- viability at 25 µM (diploid skin fibroblasts): 54%
- IC50 (HaCat keratinocyte): 8 µM
- IC50 (HaCat keratinocyte; Homo sapiens, HaCaT): < 10 µM
- viability at 25 µM (HaCat keratinocyte; Homo sapiens): 6%
- IC50 [1]: 9 µM
- viability at 25 µM [1]: 5%
- IC50 [2]: 13 µM
- viability at 25 µM [2]: 17%
- IC50 (MDA-MB231 cells): 9 µM
- viability at 25 µM (MDA-MB231 cells): 17%
- IC50 [3]: 14 µM
- viability at 25 µM [3]: 39%
- IC50 [4]: 11 µM
- viability at 25 µM [4]: 9%
- IC50 [5]: 14 µM
- viability at 25 µM [5]: 8%

- IC50 (SsCK1δ/ε): 1.4 µM
- IC50 (HsCDK5/p25): > 10 µM
- IC50 (SsGSK-3α/β): > 10 µM
Compound: O=C1/C(=C/c2ccc(O)cc2)SC(=S)N1CCCCNCc1ccc2c(c1)OCO2 [Compound 9j, (5Z)3-[4-(1,3-Benzodioxol-5-ylmethylamino)butyl]-5-(4-hydroxy-benzylidene)-2-thioxo-1,3-thiazolidin-4-one]
- IC50 (diploid skin fibroblasts): > 25 µM
- viability at 25 µM (diploid skin fibroblasts): 77%
- IC50 (HaCat keratinocyte; Homo sapiens, HaCaT): 13 µM
- viability at 25 µM (HaCat keratinocyte; Homo sapiens): 21%
- IC50 [1]: 11 µM
- viability at 25 µM [1]: 22%
- IC50 [2]: 27 µM
- viability at 25 µM [2]: 41%
- IC50 (MDA-MB231 cells): 19 µM
- viability at 25 µM (MDA-MB231 cells): 42%
- IC50 [3]: 19 µM
- viability at 25 µM [3]: 38%
- IC50 [4]: 19 µM
- viability at 25 µM [4]: 33%
- IC50 [5]: 22 µM
- viability at 25 µM [5]: 40%

- melting point: 202 to 204 °C
- IC50 (SsCK1δ/ε): 2 µM
- IC50 (SsGSK-3α/β): > 10 µM
Compound: COc1cc(/C=C2\SC(=S)N(CCCCNCc3ccc4c(c3)OCCO4)C2=O)ccc1O [Compound 9n, (5Z)3-[4-(2,3-Dihydro-benzo[1,4]dioxin-6-ylmethylamino)butyl]-5-(4-hydroxy-3-methoxybenzylidene)-2-thioxo-1,3-thiazolidin-4-one]
- IC50 (diploid skin fibroblasts): > 25 µM
- viability at 25 µM (diploid skin fibroblasts): 86%
- IC50 (HaCat keratinocyte; Homo sapiens, HaCaT): 15 µM
- viability at 25 µM (HaCat keratinocyte; Homo sapiens): 48%
- IC50 [1]: 15 µM
- viability at 25 µM [1]: 41%
- IC50 [2]: 16 µM
- viability at 25 µM [2]: 28%
- IC50 (MDA-MB231 cells): 15 µM
- viability at 25 µM (MDA-MB231 cells): 55%
- IC50 [3]: 19 µM
- viability at 25 µM [3]: 61%
- IC50 [4]: 17 µM
- viability at 25 µM [4]: 63%
- IC50 [5]: 21 µM
- viability at 25 µM [5]: 52%
